Data on eleven molecules can be found in patent US11492335B2, “Aryl or heteroaryl triazolone derivatives or salts thereof, or pharmaceutical compositions comprising the same” (YUHAN CORPORATION, priority 2018, dated 2022).

Common to all, as to assay type: biochemical
The target of assay [1] is T1, recombinant human MAO-B (monoamine oxidase-B) (Homo sapiens, UniProt P27338).
T1 construct: purchased Sigma-Aldrich
T1 sequence (P27338 1-520): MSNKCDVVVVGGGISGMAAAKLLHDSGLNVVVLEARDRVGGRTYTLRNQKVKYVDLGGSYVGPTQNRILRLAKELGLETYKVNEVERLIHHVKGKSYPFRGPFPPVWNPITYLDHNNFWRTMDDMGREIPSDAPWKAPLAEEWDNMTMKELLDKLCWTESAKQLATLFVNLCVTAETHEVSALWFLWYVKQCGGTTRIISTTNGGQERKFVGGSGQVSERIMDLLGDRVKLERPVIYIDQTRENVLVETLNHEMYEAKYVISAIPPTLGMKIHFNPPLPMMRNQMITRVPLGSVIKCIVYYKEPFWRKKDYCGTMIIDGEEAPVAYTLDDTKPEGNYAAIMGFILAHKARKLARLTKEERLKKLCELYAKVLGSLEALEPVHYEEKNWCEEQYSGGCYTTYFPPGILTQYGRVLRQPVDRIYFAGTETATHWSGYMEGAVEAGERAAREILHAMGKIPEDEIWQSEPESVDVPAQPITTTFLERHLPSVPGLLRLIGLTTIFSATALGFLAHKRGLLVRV
As to the kind of experiment: Activity on recombinant human MAO-B, Amplex Red method, 1 mM benzylamine substrate. As to conditions: 1 mM benzylamine substrate, read-out: Inhibitory Activity (IC50, nM) MAO-B. The method, boiled down:
(§1)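 Enzyme in pH 7.4 phosphate buffer; 30 min, 37° C with compound (DMSO <1%); start with 200 uM Amplex Red + 1 U/mL HRP + tyramine 0.5 mM (MAO-A) or benzylamine 1 mM (MAO-B); kinetic read ex 544/em 590, 1-2 h; % rate decrease vs DMSO control → IC50, 4-parameter fit.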

A further assay concerns the target T2, recombinant human VAP-1 (Homo sapiens, UniProt Q16853).
T2 construct: purchased R&D systems
T2 sequence (Q16853 1-763): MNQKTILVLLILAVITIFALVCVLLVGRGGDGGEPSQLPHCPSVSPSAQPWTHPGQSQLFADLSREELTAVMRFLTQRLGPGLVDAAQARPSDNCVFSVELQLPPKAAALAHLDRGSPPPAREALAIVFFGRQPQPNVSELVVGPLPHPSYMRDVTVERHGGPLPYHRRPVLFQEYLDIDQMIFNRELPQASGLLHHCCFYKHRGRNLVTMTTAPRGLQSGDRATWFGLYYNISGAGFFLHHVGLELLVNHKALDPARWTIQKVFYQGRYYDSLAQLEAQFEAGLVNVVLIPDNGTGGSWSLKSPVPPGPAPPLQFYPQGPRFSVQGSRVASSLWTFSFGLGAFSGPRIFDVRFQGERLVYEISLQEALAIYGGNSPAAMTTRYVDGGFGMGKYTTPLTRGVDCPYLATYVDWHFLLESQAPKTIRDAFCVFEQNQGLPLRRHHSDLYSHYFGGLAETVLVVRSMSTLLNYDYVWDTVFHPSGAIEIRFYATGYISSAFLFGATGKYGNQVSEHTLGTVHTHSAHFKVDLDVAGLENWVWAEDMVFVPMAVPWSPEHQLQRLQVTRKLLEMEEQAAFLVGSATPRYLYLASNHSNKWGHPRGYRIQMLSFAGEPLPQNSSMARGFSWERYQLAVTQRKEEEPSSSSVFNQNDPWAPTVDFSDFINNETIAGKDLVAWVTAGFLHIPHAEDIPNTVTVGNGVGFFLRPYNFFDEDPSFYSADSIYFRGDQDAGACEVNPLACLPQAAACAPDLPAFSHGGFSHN
The experiment in a line: Activity on recombinant human VAP-1, Amplex Red HRP-coupled hydrogen peroxide assay, benzylamine substrate. As to conditions: recombinant human VAP-1, benzylamine substrate; read-out: Inhibitory Activity (IC50, nM) human VAP-1. The method, boiled down: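 Enzyme in 50 mM sodium phosphate (pH 7.4) is exposed to test compound for 30 min at 37 °C. Benzylamine (1 mM) with HRP and Amplex Red then starts the reaction, and the fluorescence rate, relative to a DMSO-only control, gives IC50.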

The target in assay [2] is T3, recombinant human DAO (diamine oxidase) (Homo sapiens, UniProt P19801).
T3 construct: purchased R&D systems
T3 sequence (P19801 20-751): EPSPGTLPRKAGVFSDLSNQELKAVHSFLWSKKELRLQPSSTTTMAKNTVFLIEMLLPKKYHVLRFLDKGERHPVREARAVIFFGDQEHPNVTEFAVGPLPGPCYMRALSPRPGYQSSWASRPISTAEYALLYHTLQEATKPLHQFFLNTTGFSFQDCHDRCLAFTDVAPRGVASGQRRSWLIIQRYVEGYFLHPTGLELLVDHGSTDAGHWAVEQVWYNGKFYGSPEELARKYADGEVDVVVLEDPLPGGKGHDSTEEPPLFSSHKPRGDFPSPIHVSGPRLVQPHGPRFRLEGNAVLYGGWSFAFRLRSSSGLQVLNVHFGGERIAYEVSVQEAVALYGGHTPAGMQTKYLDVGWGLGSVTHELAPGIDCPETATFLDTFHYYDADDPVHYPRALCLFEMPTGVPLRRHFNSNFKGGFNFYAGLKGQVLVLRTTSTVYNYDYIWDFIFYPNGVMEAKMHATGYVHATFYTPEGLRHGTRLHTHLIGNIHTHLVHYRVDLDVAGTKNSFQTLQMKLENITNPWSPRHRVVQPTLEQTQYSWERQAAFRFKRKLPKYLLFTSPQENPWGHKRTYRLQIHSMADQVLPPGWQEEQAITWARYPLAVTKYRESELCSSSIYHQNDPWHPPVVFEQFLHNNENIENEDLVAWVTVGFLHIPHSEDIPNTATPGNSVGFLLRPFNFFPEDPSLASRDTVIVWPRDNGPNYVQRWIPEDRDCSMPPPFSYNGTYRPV
As to the kind of experiment: Activity on recombinant human DAO, Amplex Red method, 1 mM putrescine substrate. Conditions: recombinant human DAO, 1 mM putrescine substrate, read-out: Inhibitory Activity (IC50, nM) DAO. In outline: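 Inhibition of recombinant human DAO (diamine oxidase, R&D systems) was assessed with the Amplex Red Hydrogen Peroxide Assay Kit. Hydrogen peroxide produced from 1 mM putrescine was detected through an HRP-coupled reaction that converts Amplex Red into fluorescent resorufin, read at 544 nm excitation and 590 nm emission. IC50 values came from four-parameter logistic fits in GraphPad Prism.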

The target in assay [3] is T4, recombinant human MAO-A (monoamine oxidase-A) (Homo sapiens, UniProt P21397).
T4 construct: purchased Sigma-Aldrich
T4 sequence (P21397 1-527): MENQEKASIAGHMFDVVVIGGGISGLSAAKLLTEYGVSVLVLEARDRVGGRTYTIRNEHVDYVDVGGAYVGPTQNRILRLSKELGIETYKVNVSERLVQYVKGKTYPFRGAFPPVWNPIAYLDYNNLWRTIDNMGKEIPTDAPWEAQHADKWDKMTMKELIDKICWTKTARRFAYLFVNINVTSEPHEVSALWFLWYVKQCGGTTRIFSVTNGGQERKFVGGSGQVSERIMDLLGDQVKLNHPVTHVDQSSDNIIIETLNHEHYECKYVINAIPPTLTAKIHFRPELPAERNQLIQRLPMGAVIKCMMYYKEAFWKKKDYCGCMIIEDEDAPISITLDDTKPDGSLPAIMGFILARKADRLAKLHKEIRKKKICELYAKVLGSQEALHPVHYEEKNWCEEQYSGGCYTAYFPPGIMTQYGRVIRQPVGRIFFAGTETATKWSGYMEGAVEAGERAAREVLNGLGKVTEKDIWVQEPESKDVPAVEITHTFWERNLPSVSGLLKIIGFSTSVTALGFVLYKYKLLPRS
As to the kind of experiment: Activity on recombinant human MAO-A, Amplex Red method, 0.5 mM tyramine substrate. Conditions: 0.5 mM tyramine substrate, read-out: Inhibitory Activity (IC50, nM) MAO-A. In outline: as §1

Structures can show the parent of a compound that is named as a salt. Where two headings read alike, the source gives them in different places.

In general, IC50 refers to the point on the concentration scale where inhibition reaches its midpoint.

Consider `NC/C(=C\F)Cn1ncn(-c2cc(-c3ccc(-c4ccon4)cc3)ccn2)c1=O` [Example 167, 2-[(2E)-2-(aminomethyl)-3-fluoroprop-2-en-1-yl]-4-{4-[4-(1,2-oxazol-3-yl)phenyl]pyridin-2-yl}-2,4-dihydro-3H-1,2,4-triazol-3-one], for which the concentration for half-maximal inhibition (IC50) in assay [1] is over 10000 nM; on recombinant human VAP-1 it was 1 nM; in assay [2], under 30 nM; in assay [3], over 100000 nM.
In the case of `CC(=O)Nc1cc(-c2ccnc(-n3cnn(C/C(=C/F)CN)c3=O)c2)ccn1` [Example 168, N-(2′-{1-[(2E)-2-(aminomethyl)-3-fluoroprop-2-en-1-yl]-5-oxo-1,5-dihydro-4H-1,2,4-triazol-4-yl}-4,4′-bipyridin-2-yl)acetamide], the IC50 in assay [1] was 159 nM; on recombinant human VAP-1 it was 0.39 nM; in assay [2], under 30 nM; in assay [3] it was over 100000 nM.
With `NC/C(=C\F)Cn1ncn(-c2cc(-c3ccc(N4CCOCC4)nc3)ccn2)c1=O` [Example 169, 2-[(2E)-2-(aminomethyl)-3-fluoroprop-2-en-1-yl]-4-[6-(morpholin-4-yl)-3,4′-bipyridin-2′-yl]-2,4-dihydro-3H-1,2,4-triazol-3-one], the half-inhibitory concentration (IC50) is over 10000 nM in assay [1], 0.28 nM at recombinant human VAP-1, under 30 nM in assay [2] and over 100000 nM in assay [3].
On to `NC/C(=C\F)Cn1ncn(-c2cc(-c3ccc4c(c3)OCO4)ccn2)c1=O` [Example 170, 2-[(2E)-2-(aminomethyl)-3-fluoroprop-2-en-1-yl]-4-[4-(1,3-benzodioxol-5-yl)pyridin-2-yl]-2,4-dihydro-3H-1,2,4-triazol-3-one], for which the 50% inhibitory concentration (IC50) was 235 nM in assay [1], 0.74 nM at recombinant human VAP-1, under 100 nM in assay [2] (bound qualified by footnote * / **) and over 100000 nM in assay [3].
Consider `NC/C(=C\F)Cn1ncn(-c2cc(-c3ccc4c(c3)OCCO4)ccn2)c1=O` [Example 171, 2-[(2E)-2-(aminomethyl)-3-fluoroprop-2-en-1-yl]-4-[4-(2,3-dihydro-1,4-benzodioxin-6-yl)pyridin-2-yl]-2,4-dihydro-3H-1,2,4-triazol-3-one], for which the IC50 is 1540 nM in assay [1], 0.84 nM at recombinant human VAP-1, under 30 nM in assay [2] and over 100000 nM in assay [3].
Consider `NC/C(=C\F)Cn1ncn(-c2cc(-c3ccc4nonc4c3)ccn2)c1=O` [Example 172, 2-[(2E)-2-(aminomethyl)-3-fluoroprop-2-en-1-yl]-4-[4-(2,1,3-benzooxadiazol-5-yl)pyridin-2-yl]-2,4-dihydro-3H-1,2,4-triazol-3-one], for which the IC50 in assay [1] was 9070 nM; at recombinant human VAP-1, 0.67 nM; in assay [2], under 30 nM; in assay [3] it was over 100000 nM.
`NC/C(=C\F)Cn1ncn(-c2cc(-c3ccc4sc(N)nc4c3)ccn2)c1=O` [Example 173, 4-[4-(2-amino-1,3-benzothiazol-5-yl)pyridin-2-yl]-2-[(2E)-2-(aminomethyl)-3-fluoroprop-2-en-1-yl]-2,4-dihydro-3H-1,2,4-triazol-3-one]: the IC50 in assay [1] was over 10000 nM; on recombinant human VAP-1 it was 0.41 nM; in assay [2], 5.9 nM; in assay [3] it was over 100000 nM.
In the case of `CN(C)c1cccc(-c2cccc(-n3cnn(C/C(=C/F)CN)c3=O)n2)c1` [Example 174, 2-[(2E)-2-(aminomethyl)-3-fluoroprop-2-en-1-yl]-4-{6-[3-(dimethylamino)phenyl]pyridin-2-yl}-2,4-dihydro-3H-1,2,4-triazol-3-one hydrochloride], the IC50 in assay [1] is 710 nM; on recombinant human VAP-1, 2.2 nM; in assay [2] it was 1100 nM; in assay [3], over 100000 nM.
In the same order, the values of `CC(=O)Nc1ccc(-c2cccc(-n3cnn(C/C(=C/F)CN)c3=O)n2)cc1` [Example 175, N-[4-(6-{1-[(2E)-2-(aminomethyl)-3-fluoroprop-2-en-1-yl]-5-oxo-1,5-dihydro-4H-1,2,4-triazol-4-yl}pyridin-2-yl)phenyl]acetamide] are over 10000 nM, 0.44 nM, under 30 nM and 1470 nM.
For `NC/C(=C\F)Cn1ncn(-c2cccc(-c3ccc(-c4ccon4)cc3)n2)c1=O` [Example 176, 2-[(2E)-2-(aminomethyl)-3-fluoroprop-2-en-1-yl]-4-{6-[4-(1,2-oxazol-3-yl)phenyl]pyridin-2-yl}-2,4-dihydro-3H-1,2,4-triazol-3-one] the same measures were 3320 nM, 0.83 nM, under 30 nM and 7900 nM.
For the molecule `NC/C(=C\F)Cn1ncn(-c2cccc(-c3ccc(-c4cnon4)cc3)n2)c1=O` [Example 177, 2-[(2E)-2-(aminomethyl)-3-fluoroprop-2-en-1-yl]-4-{6-[4-(1,2,5-oxadiazol-3-yl)phenyl]pyridin-2-yl}-2,4-dihydro-3H-1,2,4-triazol-3-one hydrochloride], the IC50 was 1900 nM in assay [1], 0.5 nM at recombinant human VAP-1, 2.6 nM in assay [2] and over 100000 nM in assay [3].
